{"source": "patent US20230293537A1", "about": "“USE OF ACETAMIDE DERIVATIVE IN PREVENTION AND TREATMENT OF ALZHEIMER'S DISEASE” (ACADEMY OF MILITARY MEDICAL SCIENCES, priority 2020, published 2023)", "tested_on": "5×FAD transgenic mice", "test": "Morris water maze test of spatial learning and memory in 5×FAD transgenic mice", "format": "in vivo", "source_text": "Animals: 5×FAD transgenic mice, male, SPF grade, initial body weight of 25-35 g; provided by Zhang Cheng Laboratory of Peking University. Male 5×FAD transgenic mice produced by breeding 5×FAD transgenic mice with WT mice and their littermate WT mice were used for the experiments, weighing 27-35 g. The 5×FAD transgenic mice were used as acute AD mouse model, the mice could develop AD pathological features at two or three months old, and behavioral changes appeared at five months old. The mice were administered at four months old, and after continuous administration for two months, the spatial learning and memory abilities of the mice were tested by water maze.\n(1) Administration: 4-month-old mice were divided into four groups, namely WT (physiological saline), 5×FAD (physiological saline), 5×FAD (YL-IPA08, 0.3 mg/kg), 5×FAD (YL-IPA08, 1 mg/kg), intragastrically (i.g.) administered, once a day. After continuous administration for 8 weeks, the spatial learning and memory ability of the mice were tested by Morris water maze.\n(2) Morris water maze test: The Morris water maze test was performed after 8 weeks of the administration of YL-IPA08 (0.3, 1 mg/kg). The water maze consisted of a circular stainless steel pool with a diameter of 120 cm and a depth of 60 cm, and the diameter of the escape platform was 10 cm. The day before the test, the mice were allowed to swim in the water maze for 30 s-60 s to acclimate to the environment. During the training, the mice were allowed to swim freely for 60 s to find the platform. If the mice found the hidden platform autonomously, they were allowed to stay there for 30 seconds, and then taken out. If the mice could not find the platform autonomously, they were guided onto the platform and allowed to stay there for 30 seconds, and then taken out. Training was performed twice a day for 5-7 days until the latency of WT mice to find the platform no longer decreased, and the latency, distance and path of the mice to find the hidden platform in the water maze were recorded. The test was performed 24 hours after the last training session, in which the platform was removed, and the mice were allowed to explore freely in the water maze for 1 minute, and the number of times the mice crossed the position of the platform and the time they stayed in the quadrant of the platform were recorded. There were 8-10 mice per group.\nAll data were presented by x±SEM. Data statistics and analysis were performed using GraphPad Prism 6.0. Significant differences were assessed by unpaired Student's t test, one-way ANOVA or two-way ANOVA followed by Tukey's multiple comparison test.", "key": {"[1]": {"settings": "5×FAD transgenic mice, YL-IPA08 0.3, 1 mg/kg i.g. once a day for 8 weeks, 6 days training, vs solvent control group of 5×FAD mice"}}}
{"compound": "CCN(Cc1ccccn1)C(=O)Cc1c(-c2ccc(Cl)c(Cl)c2)nc2cc(C)ccn12.Cl", "note": "[YL-IPA08, N-ethyl-N-(2-pyridylmethyl)-2-[2-(3,4-dichlorophenyl)-7-methyl-imidazo[1,2-a]pyridin-3-yl]-acetamide·hydrochloride]", "values": [{"measurement": "learning and cognitive impairment in 5×FAD mice (overall conclusion)", "setting": "5×FAD mice, 0.3, 1 mg/kg i.g. once a day for 8 weeks, Morris water maze", "result": "can improve learning and cognitive impairment"}, {"measurement": "average swimming speed (test period)", "setting": "5×FAD transgenic mice, 0.3, 1 mg/kg i.g. once a day for 8 weeks, comparison of the mice in each group", "result": "not significantly different"}, {"measurement": "number of times the mice crossed the platform (test period)", "setting": "5×FAD transgenic mice, 0.3, 1 mg/kg i.g. once a day for 8 weeks, test 24 hours after last training, platform removed, 1 minute, vs solvent control group", "result": "significantly higher"}, {"measurement": "distance to find the platform (water maze training)", "setting": "[1]", "result": "significantly shortened"}, {"measurement": "latency to find the platform (water maze training)", "setting": "[1]", "result": "significantly shortened"}]}
